These are literature values, as cited in patent US20040220167A1, “Methods of treating neuralgic pain” (priority 2003, published 2004).

The conditions of the series: in vivo.

As to Verteporfin, the “fraction cleared via the kidneys” value is recorded as “Less than 1%”; the mean half-life was 5 to 6 h; the primary clearance route entry was “primarily cleared through bile and feces”.
